Results published in patent US20250179061A1 (SIRONAX LTD., priority 2022, published 2025).
Counter-ions that a name gives are not always drawn. Like-named read-outs stand apart in the source and are kept apart here.

Tested on: HT-29 cells
Assay: HT-29 necroptosis cell viability assay (TNF-α/SMAC mimetic/zVAD-FMK, CellTiter-Glo)
Assay type: cell-based
Conditions: Homo sapiens, read-out: Activity
How it was run: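 Necroptosis was triggered by TNF-α (10 ng/ml), SMAC mimetic (6 μM) and zVAD-FMK (10 μM) in serum-free medium during 20 h compound exposure (10 concentrations, threefold steps) of HT-29 cells. IC50 from duplicate dose-responses uses CellTiter-Glo ATP luminescence as viability read-out.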

[1] = HT-29, HT-29 necroptosis cell viability, IC50 class symbols
[2] = HT-29, HT-29 necroptosis cell viability assay, class symbols for IC50
[3] = HT-29 cells stimulated with TNF-α (10 ng/ml), SMAC mimetic (6 μM) and zVAD-FMK (10 μM), 20 hours, CellTiter-Glo ATP luminescence, geometric mean IC50 from 10 points

Row | Structure (SMILES) | IC50 [1] [nM] | IC50 [3] [nM] | other results
1 | Cc1nc(C(C)(C)O)sc1Oc1ncc(-n2ncn(Cc3c(F)cccc3F)c2=O)cc1F [Example 465, 4-(2,6-difluorobenzyl)-2-(5-fluoro-6-((2-(2-hydroxypropan-2-yl)-4-methylthiazol-5-yl)oxy)pyridin-3-yl)-2,4-dihydro-3H-1,2,4-triazol-3-one] | < 100 | – | –
2 | CC1(C)COC(Nc2cc(Oc3ccc(-n4ncn(Cc5c(F)cccc5F)c4=O)cc3F)c(F)cn2)=N1 [Example 474, 4-(2,6-difluorobenzyl)-2-(4-((2-((4,4-dimethyl-4,5-dihydrooxazol-2-yl)amino)-5-fluoropyridin-4-yl)oxy)-3-fluorophenyl)-2,4-dihydro-3H-1,2,4-triazol-3-one] | 100 to 1000 | – | –
3 | CC(C)(C)Oc1cc(Oc2ccc(-n3ncn(Cc4c(F)cccc4F)c3=O)cc2)ccn1 [Example 388, 2-(4-((2-(tert-butoxy)pyridin-4-yl)oxy)phenyl)-4-(2,6-difluorobenzyl)-2,4-dihydro-3H-1,2,4-triazol-3-one] | 100 to 1000 | – | –
4 | CC1(CNC(=O)OC(C)(C)C)CN(c2cc(Oc3ccc(-n4ncn(Cc5c(F)cccc5F)c4=O)cc3F)c(F)cn2)C1 [Example 557, tert-butyl ((1-(4-(4-(4-(2,6-difluorobenzyl)-5-oxo-4,5-dihydro-1H-1,2,4-triazol-1-yl)-2-fluorophenoxy)-5-fluoropyridin-2-yl)-3-methylazetidin-3-yl)methyl)carbamate] | – | – | IC50 [2]: < 100 nM
5 | Cc1nc(N2CCC(N)(C(F)(F)F)C2)sc1Cc1ccc(-n2ncn(Cc3c(F)cccc3F)c2=O)cc1F (centres unmarked) [Example 60, 2-(4-((2-(3-amino-3-(trifluoromethyl)pyrrolidin-1-yl)-4-methylthiazol-5-yl)methyl)-3-fluorophenyl)-4-(2,6-difluorobenzyl)-2,4-dihydro-3H-1,2,4-triazol-3-one formate] | – | < 100 | –
6 | Cc1ncc(Oc2ccc(-n3ncn(Cc4c(F)cccc4F)c3=O)cc2)s1 [Example 99, 4-(2,6-difluorobenzyl)-2-(4-((2-methylthiazol-5-yl)oxy)phenyl)-2,4-dihydro-3H-1,2,4-triazol-3-one] | – | < 100 | –
7 | Cc1nc(N2CC(C)(C#N)C2)sc1Oc1ccc(-n2ncn(Cc3c(F)cccc3F)c2=O)cc1 [Example 46, 1-(5-(4-(4-(2,6-difluorobenzyl)-5-oxo-4,5-dihydro-1H-1,2,4-triazol-1-yl)phenoxy)-4-methylthiazol-2-yl)-3-methylazetidine-3-carbonitrile] | – | < 100 | –
8 | Cc1nc(C(N)=O)sc1Oc1ccc(-n2nc3n(c2=O)[C@H](C2CCCC2)CC3)cc1F (single isomer, unassigned) [Example 702] | – | < 100 | –
9 | O=c1n(Cc2c(F)cccc2F)cnn1-c1ccc(C2=CCOCC2)cc1 [Example 536, 4-(2,6-difluorobenzyl)-2-(4-(3,6-dihydro-2H-pyran-4-yl)phenyl)-2,4-dihydro-3H-1,2,4-triazol-3-one] | – | – | IC50 [2]: 1000 to 10000 nM
10 | Cc1nc(C2(O)CC2)sc1Oc1ccc(-n2ncn(Cc3c(F)cccc3F)c2=O)cc1F [Example 582, 4-(2,6-difluorobenzyl)-2-(3-fluoro-4-((2-(1-hydroxycyclopropyl)-4-methylthiazol-5-yl)oxy)phenyl)-2,4-dihydro-3H-1,2,4-triazol-3-one] | – | – | IC50 [2]: < 100 nM
11 | CC(C)(C)OC(=O)NC1CN(c2cc(Oc3ccc(-n4ncn(Cc5c(F)cccc5F)c4=O)cc3)ccn2)C1 [Example 327, tert-butyl (1-(4-(4-(4-(2,6-difluorobenzyl)-5-oxo-4,5-dihydro-1H-1,2,4-triazol-1-yl)phenoxy)pyridin-2-yl)azetidin-3-yl)carbamate] | < 100 | – | –
12 | N#Cc1cccc(Oc2ccc(-n3ncn(Cc4c(F)cccc4F)c3=O)cc2)c1 [Example 437, 3-(4-(4-(2,6-difluorobenzyl)-5-oxo-4,5-dihydro-1H-1,2,4-triazol-1-yl)phenoxy)benzonitrile] | < 100 | – | –
13 | N#CC12CC(Nc3nccc(Oc4ccc(-n5ncn(Cc6c(F)cccc6F)c5=O)cc4)c3Cl)(C1)C2 [Example 248, 3-((3-chloro-4-(4-(4-(2,6-difluorobenzyl)-5-oxo-4,5-dihydro-1H-1,2,4-triazol-1-yl)phenoxy)pyridin-2-yl)amino)bicyclo[1.1.1]pentane-1-carbonitrile] | < 100 | – | –
14 | O=c1n(Cc2c(F)cccc2F)cnn1-c1ccc(Oc2ccnc(NCC3CC3)c2)cc1 [Example 524, 2-(4-((2-((cyclopropylmethyl)amino)pyridin-4-yl)oxy)phenyl)-4-(2,6-difluorobenzyl)-2,4-dihydro-3H-1,2,4-triazol-3-one] | – | – | IC50 [2]: < 100 nM
15 | Cc1nc(C(N)=O)sc1Oc1ccc(-n2nc3n(c2=O)[C@@H](c2ccccc2)CC3)cc1F (single isomer, unassigned) [Example 15] | – | 100 to 1000 | –
16 | N#CC12CC(Nc3nccc(Oc4ccc(-n5ncn(Cc6c(F)cccc6F)c5=O)cc4)c3F)(C1)C2 [Example 361, 3-((4-(4-(4-(2,6-difluorobenzyl)-5-oxo-4,5-dihydro-1H-1,2,4-triazol-1-yl)phenoxy)-3-fluoropyridin-2-yl)amino)bicyclo[1.1.1]pentane-1-carbonitrile] | 100 to 1000 | – | –
17 | Cc1c(C(N)=O)nn(C)c1Oc1ccc(-n2nc3n(c2=O)C(c2ccccc2)CC3)cc1F (centres unmarked) [Example 23, 5-(2-fluoro-4-(3-oxo-5-phenyl-6,7-dihydro-3H-pyrrolo[2,1-c][1,2,4]triazol-2(5H)-yl)phenoxy)-1,4-dimethyl-1H-pyrazole-3-carboxamide] | – | < 100 | –
18 | Cn1ncc(N)c1Oc1ccc(-n2ncn(Cc3c(F)cccc3F)c2=O)cc1 [Example 443, 2-(4-((4-amino-1-methyl-1H-pyrazol-5-yl)oxy)phenyl)-4-(2,6-difluorobenzyl)-2,4-dihydro-3H-1,2,4-triazol-3-one] | 100 to 1000 | – | –
19 | Cc1nc(N2C[C@H](F)[C@@H]2C)sc1Oc1ccc(-n2ncn(Cc3c(F)cccc3F)c2=O)cc1 [Example 51, 4-(2,6-difluorobenzyl)-2-(4-((2-((2S,3S)-3-fluoro-2-methylazetidin-1-yl)-4-methylthiazol-5-yl)oxy)phenyl)-2,4-dihydro-3H-1,2,4-triazol-3-one] | – | < 100 | –
20 | Cc1ncc(C(N)=O)n1Cc1ccc(-n2ncn(Cc3c(F)cccc3F)c2=O)cc1F [Example 104, 1-(4-(4-(2,6-difluorobenzyl)-5-oxo-4,5-dihydro-1H-1,2,4-triazol-1-yl)-2-fluorobenzyl)-2-methyl-1H-imidazole-5-carboxamide] | – | < 100 | –
